Measurements: patent publication US8846947B2, “Benzimidazoles and related analogs as sirtuin modulators” (GlaxoSmithKline LLC, priority 2008, dated 2014)

Biological target: T1, SIRT1 (Homo sapiens, UniProt Q96EB6)
T1 sequence (Q96EB6 1-747): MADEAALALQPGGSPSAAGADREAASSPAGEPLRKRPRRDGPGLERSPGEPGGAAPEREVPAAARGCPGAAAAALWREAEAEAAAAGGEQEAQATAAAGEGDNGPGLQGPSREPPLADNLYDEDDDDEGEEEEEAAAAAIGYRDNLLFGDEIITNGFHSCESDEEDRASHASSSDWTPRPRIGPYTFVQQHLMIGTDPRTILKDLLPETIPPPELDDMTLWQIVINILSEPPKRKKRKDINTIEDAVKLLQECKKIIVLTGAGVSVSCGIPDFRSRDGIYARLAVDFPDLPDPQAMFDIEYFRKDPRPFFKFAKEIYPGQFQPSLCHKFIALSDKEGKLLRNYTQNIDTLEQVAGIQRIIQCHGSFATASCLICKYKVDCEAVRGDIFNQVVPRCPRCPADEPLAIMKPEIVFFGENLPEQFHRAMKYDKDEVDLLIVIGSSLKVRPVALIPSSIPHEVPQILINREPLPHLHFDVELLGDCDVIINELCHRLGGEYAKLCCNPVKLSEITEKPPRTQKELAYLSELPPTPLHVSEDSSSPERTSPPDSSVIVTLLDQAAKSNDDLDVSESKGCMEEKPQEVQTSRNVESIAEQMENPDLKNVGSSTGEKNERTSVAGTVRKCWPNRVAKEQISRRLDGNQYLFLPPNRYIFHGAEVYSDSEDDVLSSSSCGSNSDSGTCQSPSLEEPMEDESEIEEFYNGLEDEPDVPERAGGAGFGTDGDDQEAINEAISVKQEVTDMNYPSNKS
Test: Mass spectrometry based SIRT1 deacetylase activation assay (acetylated p53-derived peptide substrate)
Type: biochemical
Conditions: 0.5 μM peptide substrate, 120 μM βNAD+, 10 nM SIRT1, 25 min at 25° C.; for EC1.5: read-out: EC1.5

Structure (SMILES) | Fold Act. (percent maximum fold activation) | EC1.5 [nM]
O=C(Nc1cccc(OCC(O)CO)c1)c1cccc2[nH]c(-c3ccccc3C(F)(F)F)nc12 (stereo not drawn) [Compound 478] | A (Fold activation >200%) | < 1000
O=C(Nc1cccc(OCC(O)CO)c1)c1cccc2[nH]c(-c3ccc(Cl)cc3C(F)(F)F)nc12 (stereo not drawn) [Compound 479] | A (Fold activation >200%) | < 1000
O=C(Nc1cccc(OCC(O)CO)c1)c1cccc2[nH]c(-c3cc(F)ccc3C(F)(F)F)nc12 (stereo not drawn) [Compound 480] | A (Fold activation >200%) | < 1000
Cc1cc(NC(=O)c2cccc3[nH]c(-c4ccccc4C(F)(F)F)nc23)no1 [Compound 481] | A (Fold activation >200%) | < 1000
O=C(Nc1nccs1)c1cccc2[nH]c(-c3ccccc3OCCN3CCCC3)nc12 [Compound 482, 2-(2-(2-(pyrrolidin-1-yl)ethoxy)phenyl)-N-(thiazol-2-yl)-1H-benzo[d]imidazole-4-carboxamide] | A (Fold activation >200%) | 1000 to 25000
O=C(Nc1nccs1)c1cccc2[nH]c(-c3ccccc3OCCN3CCNCC3)nc12 [Compound 483] | A (Fold activation >200%) | 1000 to 25000
O=C(Nc1ccccn1)c1cccc2[nH]c(-c3ccccc3OCCN3CCNCC3)nc12 [Compound 484] | A (Fold activation >200%) | 1000 to 25000
CC(C)N1CCN(CCOc2ccccc2-c2nc3c(C(=O)Nc4nccs4)cccc3[nH]2)CC1 [Compound 485] | A (Fold activation >200%) | 1000 to 25000
CC(C)N1CCN(CCOc2ccccc2-c2nc3c(C(=O)Nc4ccccn4)cccc3[nH]2)CC1 [Compound 486] | A (Fold activation >200%) | 1000 to 25000
Cc1cc(NC(=O)c2cccc3[nH]c(-c4ccccc4OCCN4CCOCC4)nc23)n(C)n1 [Compound 487] | A (Fold activation >200%) | 1000 to 25000
O=C(Nc1cccnn1)c1cccc2[nH]c(-c3ccccc3OCCN3CCOCC3)nc12 [Compound 488] | B (Fold Activation <200%) | 1000 to 25000
O=C(Nc1cnccn1)c1cccc2[nH]c(-c3ccccc3OCCN3CCOCC3)nc12 [Compound 489] | B (Fold Activation <200%) | 1000 to 25000
O=C(Nc1cccc(CN2CCCC2)c1)c1cccc2[nH]c(-c3ccc(Cl)cc3C(F)(F)F)nc12 [Compound 490, 2-(4-chloro-2-(trifluoromethyl)phenyl)-N-(3-(pyrrolidin-1-ylmethyl)phenyl)-1H-benzo[d]imidazole-4-carboxamide] | A (Fold activation >200%) | < 1000
O=C(Nc1ccc(CN2CCCC2)cc1)c1cccc2[nH]c(-c3ccc(Cl)cc3C(F)(F)F)nc12 [Compound 491] | A (Fold activation >200%) | < 1000
O=C(Nc1ccc(OCC(O)CO)cc1)c1cccc2[nH]c(-c3ccccc3C(F)(F)F)nc12 (stereo not drawn) [Compound 492] | A (Fold activation >200%) | < 1000
O=C(Nc1ccc(OCC(O)CO)cc1)c1cccc2[nH]c(-c3ccc(Cl)cc3C(F)(F)F)nc12 (stereo not drawn) [Compound 493] | A (Fold activation >200%) | < 1000
O=C(Nc1ccc(OCC(O)CO)cc1)c1cccc2[nH]c(-c3cc(F)ccc3C(F)(F)F)nc12 (stereo not drawn) [Compound 494] | A (Fold activation >200%) | < 1000
Cc1cnc(NC(=O)c2cccc3[nH]c(-c4c(C(F)(F)F)nn(C)c4Cl)nc23)s1 [Compound 495] | A (Fold activation >200%) | < 1000
O=C(Nc1ccccn1)c1cccc2[nH]c(-c3cccc4c3OC(F)(F)O4)nc12 [Compound 496] | A (Fold activation >200%) | < 1000
CCCN1CCCc2ccc(-c3nc4c(C(=O)Nc5cccnc5)cccc4[nH]3)cc21 [Compound 497] | A (Fold activation >200%) | 1000 to 25000
CC1(C)Cc2cc(-c3nc4c(C(=O)Nc5ccccn5)cccc4[nH]3)ccc2O1 [Compound 498] | B (Fold Activation <200%) | 1000 to 25000
CC1(C)Cc2cc(-c3nc4c(C(=O)Nc5cccnc5)cccc4[nH]3)ccc2O1 [Compound 499] | A (Fold activation >200%) | 1000 to 25000
Cc1cnc(NC(=O)c2cccc3[nH]c(-c4ccc5c(c4)CC(C)(C)O5)nc23)s1 [Compound 500] | A (Fold activation >200%) | < 1000

Structure (SMILES) | Fold Act. (percent maximum fold activation) | EC1.5 [nM]
O=C(Nc1nccs1)c1cccc2[nH]c(-c3cc(Cl)ccc3OCCN3CCOCC3)nc12 [Compound 501] | A (Fold activation >200%) | < 1000
O=C(Nc1ccccn1)c1cccc2[nH]c(-c3cc(Cl)ccc3OCCN3CCOCC3)nc12 [Compound 502] | A (Fold activation >200%) | 1000 to 25000
O=C(Nc1nccs1)c1cccc2[nH]c(-c3ccc(F)cc3OCCN3CCOCC3)nc12 [Compound 503] | B (Fold Activation <200%) | 1000 to 25000
O=C(Nc1ccccn1)c1cccc2[nH]c(-c3ccc(F)cc3OCCN3CCOCC3)nc12 [Compound 504] | B (Fold Activation <200%) | 1000 to 25000
Cc1cc(Cl)cc(-c2nc3c(C(=O)Nc4nccs4)cccc3[nH]2)c1OCCN1CCOCC1 [Compound 505] | A (Fold activation >200%) | 1000 to 25000
Cc1cc(Cl)cc(-c2nc3c(C(=O)Nc4ccccn4)cccc3[nH]2)c1OCCN1CCOCC1 [Compound 506] | B (Fold Activation <200%) | 1000 to 25000
O=C(Nc1nccs1)c1cccc2[nH]c(-c3ccccc3OCCN3CC[C@@H](F)C3)nc12 [Compound 507] | B (Fold Activation <200%) | 1000 to 25000
O=C(Nc1ccccn1)c1cccc2[nH]c(-c3ccccc3OCCN3CC[C@@H](F)C3)nc12 [Compound 508] | A (Fold activation >200%) | 1000 to 25000
O=C(Nc1nccs1)c1cccc2[nH]c(-c3ccccc3OCCN3CC[C@H](F)C3)nc12 [Compound 509] | B (Fold Activation <200%) | < 1000
O=C(Nc1ccccn1)c1cccc2[nH]c(-c3ccccc3OCCN3CC[C@H](F)C3)nc12 [Compound 510] | B (Fold Activation <200%) | 1000 to 25000
O=C(Nc1nccs1)c1cccc2[nH]c(-c3cc(F)ccc3C(F)F)nc12 [Compound 511] | A (Fold activation >200%) | 1000 to 25000
Cc1cnc(NC(=O)c2cccc3[nH]c(-c4cc(F)ccc4C(F)F)nc23)s1 [Compound 512] | A (Fold activation >200%) | < 1000
O=C(Nc1ccccn1)c1cccc2[nH]c(-c3cc(F)ccc3C(F)F)nc12 [Compound 513] | A (Fold activation >200%) | < 1000
O=C(Nc1nccs1)c1cccc2[nH]c(-c3ccccc3C(F)F)nc12 [Compound 514] | A (Fold activation >200%) | < 1000
Cc1cnc(NC(=O)c2cccc3[nH]c(-c4ccccc4C(F)F)nc23)s1 [Compound 515] | A (Fold activation >200%) | < 1000
O=C(Nc1ccccn1)c1cccc2[nH]c(-c3ccccc3C(F)F)nc12 [Compound 516] | A (Fold activation >200%) | < 1000
CS(=O)(=O)c1ccccc1-c1nc2c(C(=O)Nc3nccs3)cccc2[nH]1 [Compound 517] | A (Fold activation >200%) | 1000 to 25000
CS(=O)(=O)c1ccccc1-c1nc2c(C(=O)Nc3cccnc3)cccc2[nH]1 [Compound 518] | A (Fold activation >200%) | 1000 to 25000
CS(=O)(=O)c1ccccc1-c1nc2c(C(=O)Nc3ccccn3)cccc2[nH]1 [Compound 519] | A (Fold activation >200%) | < 1000
CS(=O)(=O)c1cc(Cl)ccc1-c1nc2c(C(=O)Nc3nccs3)cccc2[nH]1 [Compound 520] | A (Fold activation >200%) | 1000 to 25000
CS(=O)(=O)c1cc(Cl)ccc1-c1nc2c(C(=O)Nc3cccnc3)cccc2[nH]1 [Compound 521] | A (Fold activation >200%) | 1000 to 25000
CS(=O)(=O)c1cc(Cl)ccc1-c1nc2c(C(=O)Nc3ccccn3)cccc2[nH]1 [Compound 522] | A (Fold activation >200%) | < 1000
